Laboratory results as given in patent US8435987B2, “Pyrazolo-pyridinone and pyrazolo-pyrazinone compounds as P38 modulators and methods of use thereof” (Amgen Inc., priority 2007, dated 2013).

Test system: production of IL-1β, IL-6, and TNF-α by PBMC activated with bacterial lipopolysaccharide (LPS)
Assay: Lipopolysaccharide-activated PBMC cytokine production assay
Type: cell-based
Conditions: LPS 100 ng/mL, 18 hours
Protocol: Lipopolysaccharide-Activated PBMC Cytokine Production Assay
Test compounds were evaluated in vitro for the ability to inhibit the production of IL-1β, IL-6, and TNF-α by PBMC activated with bacterial lipopolysaccharide (LPS). Fresh leukocytes were obtained from a local blood bank, and peripheral blood mononuclear cells (PBMCs) were isolated by density gradient centrifugation on Ficol-Paque Plus (Pharmacia).
Preparation of Test Compound Stock Solutions
All reagents were prepared in RPMI 1640+10% v/v human AB serum+1×Pens/Strep/Glu (assay medium). Test compounds were dissolved in 100% DMSO and serially diluted in 96-well polypropylene round bottom micro titer plates (drug plate). Serial dilutions were then diluted 1:250 into assay medium to a 4× working concentration. […]
LPS was prepared to a 4× concentration in assay medium. […] After 18 hours culture supernatants were removed and IL-1β, IL-6, and TNF-α presence in the supernatants was quantified using MSD ECL based technology.
20 μL of culture supernatant were added to MSD plates, and incubated for one hour at room temperature. 20 μL of detection antibody diluted in antibody diluent (1 μg/mL), and 110 μL of 2× Read Buffer P was added, and incubated for one hour at RT. Electrochemiluminescence was measured using the SECTOR HTS Imager (MSD, Gaithersburg, Md.). […]

Row | Structure (SMILES) | IC50 [nM]
1 | CNc1noc2c(-c3cc4cnn(-c5c(F)cccc5F)c4n(C)c3=O)c(C)ccc12 [Example 5, 1-(2,6-difluorophenyl)-7-methyl-5-(6-methyl-3-(methylamino)-1,2-benzisoxazol-7-yl)-1,7-dihydro-6H-pyrazolo[3,4-b]pyridin-6-one] | ≤ 100
2 | Cc1ccc2c(NC3CC3)noc2c1-c1cc2cnn(-c3c(F)cccc3F)c2n(C)c1=O [Example 1, 5-(3-(cyclopropylamino)-6-methylbenzo[d]isoxazol-7-yl)-1-(2,6-difluorophenyl)-7-methyl-1H-pyrazolo[3,4-b]pyridin-6(7H)-one] | ≤ 100
